# Values quoted from earlier work in publication PMC6044787 (ACS Omega, 2017).
# Test system: AChE
smiles,measurement,value
"C[n+]1ccc2c(c1)[nH]c1ccc(Cl)cc12 [Compound 8, nostocarboline]",IC50,5.3 µM
